Assay type in all cases: cell-based
For data set [1], the system named is Raji. The data set is described as follows: Inhibition of TPA-induced EBV-early antigen activation in human Raji cells at 500 molar ratio after 48 hrs by indirect immunofluorescence technique relative to TPA. As to conditions: human gammaherpesvirus 4.
For data set [2], the system named is Raji. In words: Inhibition of TPA-induced EBV-early antigen activation in human Raji cells at 100 molar ratio after 48 hrs by indirect immunofluorescence technique relative to TPA. As to conditions: human gammaherpesvirus 4.
Data set [3] concerns Raji. In words: Inhibition of TPA-induced EBV-early antigen activation in human Raji cells at 10 molar ratio after 48 hrs by indirect immunofluorescence technique relative to TPA. As to conditions: human gammaherpesvirus 4.
Data set [4] can be described thus: Cytotoxicity against human Raji cells assessed as cell viability at 1000 molar ratio. As to conditions: read-out: Activity.
Data set [5] can be described thus: Cytotoxicity against human Raji cells assessed as cell viability at 500 molar ratio. As to conditions: read-out: Activity.
The nature of data set [6]: Cytotoxicity against human Raji cells assessed as cell viability at 100 molar ratio. As to conditions: read-out: Activity.
Data set [7] is described as follows: Cytotoxicity against human Raji cells assessed as cell viability at 10 molar ratio. As to conditions: read-out: Activity.

Structures are written as SMILES.

For `Cc1ccnc2c1C(=O)c1ccccc1C2=O` [CLEISTOPHOLINE], the EBV-EA activation % of TPA control in data set [1] turned out to be 48.7%; in data set [2], 77.5%; in data set [3], 100%. Also, the viability at 1000 molar ratio in data set [4] worked out at 70%. In data set [5], the viability at 500 molar ratio is above 80%. Moreover, in data set [6], the viability at 100 molar ratio was above 80%. Further, the viability at 10 molar ratio in data set [7] was above 80%.

Turning to `Cc1ccnc2c1C(O)c1ccccc1-2` (stereo not drawn), the EBV-EA activation % of TPA control in data set [1], in data set [2] and in data set [3] was 100% in each case. The viability at 1000 molar ratio in data set [4] was above 80%. Also, in data set [5], the viability at 500 molar ratio is above 80%. For the same compound, the viability at 100 molar ratio in data set [6] is above 80%. Also, in data set [7], the viability at 10 molar ratio is above 80%.

As to `O=C1c2ccccc2C(=O)c2occc21`, the EBV-EA activation % of TPA control in data set [1] turned out to be 0%; in data set [2], 0%; in data set [3] it was 59.4%. Besides, in data set [4], the viability at 1000 molar ratio amounted to 0%. For the same compound, the viability at 500 molar ratio in data set [5] was determined as 10%. For the same compound, the viability at 100 molar ratio in data set [6] worked out at 10%. The viability at 10 molar ratio in data set [7] was found to be 70%.

With `CN(C)C1=CC(=O)c2ccccc2C1=O`, the EBV-EA activation % of TPA control in data set [1] worked out at 89.2%; in data set [2], 92.5%; in data set [3] it was 100%. Besides, the viability at 1000 molar ratio in data set [4] was above 80%. Besides, the viability at 500 molar ratio in data set [5] was above 80%. For the same compound, the viability at 100 molar ratio in data set [6] is above 80%. Further, the viability at 10 molar ratio in data set [7] was above 80%.

Consider `COc1c(C=O)c(O)cc2c1C(=O)c1ccccc1C2=O` [DAMNACANTHAL], for which the EBV-EA activation % of TPA control in data set [1] was 51.6%; in data set [2], 92.8%; in data set [3], 100%. The viability at 1000 molar ratio in data set [4] was 60%. Besides, the viability at 500 molar ratio in data set [5] was above 80%. For the same compound, in data set [6], the viability at 100 molar ratio is above 80%. Besides, in data set [7], the viability at 10 molar ratio was above 80%.

Regarding `Cc1ccnc2c1C(=O)c1cccc(O)c1C2=O`, the results for the EBV-EA activation % of TPA control in data set [1], in data set [2] and in data set [3] were 15.4%, 67.4% and 89.1%, respectively. Besides, in data set [4], the viability at 1000 molar ratio came to 40%. In addition, the viability at 500 molar ratio in data set [5] stood at 60%. Moreover, in data set [6], the viability at 100 molar ratio is above 80%. The viability at 10 molar ratio in data set [7] was above 80%.

`Cc1cnc2c(c1)C(=O)c1ccccc1C2=O`: the EBV-EA activation % of TPA control stood at 48.7% in data set [1], 76.5% in data set [2] and 100% in data set [3]. Moreover, the viability at 1000 molar ratio in data set [4] was found to be 70%. Besides, the viability at 500 molar ratio in data set [5] was above 80%. Also, the viability at 100 molar ratio in data set [6] was above 80%. Moreover, in data set [7], the viability at 10 molar ratio was above 80%.

For the compound `COc1cccc2c1C(=O)c1c(ccc3c1OCO3)C2=O`, the EBV-EA activation % of TPA control in data set [1] is 57.6%; in data set [2], 82.5%; in data set [3] it was 100%. In data set [4], the viability at 1000 molar ratio was 60%. Moreover, in data set [5], the viability at 500 molar ratio is above 80%. Besides, the viability at 100 molar ratio in data set [6] was above 80%. In data set [7], the viability at 10 molar ratio was above 80%.

For `Cc1ccnc2c1C(=O)c1ccccc1-2` [ONYCHINE], the EBV-EA activation % of TPA control came to 94.1% in data set [1], 100% in data set [2] and 100% in data set [3]. In data set [4], the viability at 1000 molar ratio is 70%. The viability at 500 molar ratio in data set [5] was above 80%. For the same compound, in data set [6], the viability at 100 molar ratio is above 80%. In addition, the viability at 10 molar ratio in data set [7] is above 80%.

`COc1c(CO)c(O)cc2c1C(=O)c1ccccc1C2=O` [DAMNACANTHOL]: the values for the EBV-EA activation % of TPA control in data set [1], in data set [2] and in data set [3] were 91.2%, 100% and 100%, respectively. In addition, in data set [4], the viability at 1000 molar ratio was found to be 70%. In addition, in data set [5], the viability at 500 molar ratio was above 80%. The viability at 100 molar ratio in data set [6] was above 80%. The viability at 10 molar ratio in data set [7] is above 80%.

With `O=C1c2cccc(O)c2C(=O)c2c(O)cccc21` [DANTHRON], the results for the EBV-EA activation % of TPA control in data set [1], in data set [2] and in data set [3] were 61.9%, 71.2% and 94.2%, respectively. For the same compound, the viability at 1000 molar ratio in data set [4] was above 80%. In addition, the viability at 500 molar ratio in data set [5] was above 80%. The viability at 100 molar ratio in data set [6] is above 80%. Further, the viability at 10 molar ratio in data set [7] is above 80%.

Turning to `COc1cccc2c1C(=O)c1ncc(C)cc1C2=O`, the EBV-EA activation % of TPA control in data set [1] was 83%; in data set [2], 100%; in data set [3] it was 100%. Moreover, the viability at 1000 molar ratio in data set [4] was above 80%. For the same compound, in data set [5], the viability at 500 molar ratio is above 80%. Also, the viability at 100 molar ratio in data set [6] is above 80%. In data set [7], the viability at 10 molar ratio is above 80%.

On to `CN(C)C1=CC(=O)c2cc(O)ccc2C1=O`, for which the EBV-EA activation % of TPA control in data set [1] was 68.5%; in data set [2], 100%; in data set [3], 100%. Besides, in data set [4], the viability at 1000 molar ratio was 60%. Besides, the viability at 500 molar ratio in data set [5] is above 80%. Also, the viability at 100 molar ratio in data set [6] is above 80%. Besides, the viability at 10 molar ratio in data set [7] was above 80%.

`Cc1cc(O)c2c(c1)C(=O)c1cc(O)cc(O)c1C2=O` [EMODIN]: the EBV-EA activation % of TPA control in data set [1] is 54.2%; in data set [2], 91.1%; in data set [3], 100%. Moreover, the viability at 1000 molar ratio in data set [4] is above 80%. Besides, in data set [5], the viability at 500 molar ratio was above 80%. For the same compound, in data set [6], the viability at 100 molar ratio is above 80%. Also, the viability at 10 molar ratio in data set [7] is above 80%.

Turning to `Cc1ccc2c(n1)C(=O)c1c(O)cccc1C2=O`, the EBV-EA activation % of TPA control in data set [1] was found to be 17.3%; in data set [2] it was 56.8%; in data set [3], 92.4%. Further, the viability at 1000 molar ratio in data set [4] worked out at 10%. Also, the viability at 500 molar ratio in data set [5] is 50%. For the same compound, in data set [6], the viability at 100 molar ratio was above 80%. Besides, the viability at 10 molar ratio in data set [7] is above 80%.

On to `COc1ccc2c(c1)C(=O)c1ccc3c(c1C2=O)OCO3`, for which the results for the EBV-EA activation % of TPA control in data set [1], in data set [2] and in data set [3] were 56.8%, 78.9% and 100%, respectively. Moreover, in data set [4], the viability at 1000 molar ratio amounted to 70%. Further, the viability at 500 molar ratio in data set [5] was above 80%. Besides, the viability at 100 molar ratio in data set [6] is above 80%. In addition, the viability at 10 molar ratio in data set [7] is above 80%.

For the compound `O=C1c2ccc(O)c(O)c2C(=O)c2c(O)ccc(O)c21` [QUINALIZARIN], the EBV-EA activation % of TPA control is 0% in data set [1], 88.4% in data set [2] and 100% in data set [3]. The viability at 1000 molar ratio in data set [4] worked out at 40%. Also, in data set [5], the viability at 500 molar ratio came to 60%. Also, the viability at 100 molar ratio in data set [6] was above 80%. Also, in data set [7], the viability at 10 molar ratio was above 80%.

With `O=C(O)c1cc(O)c2c(c1)[C@@H]([C@H]1c3cc(C(=O)O)cc(O)c3C(=O)c3c(O[C@@H]4O[C@H](CO)[C@@H](O)[C@H](O)[C@H]4O)cccc31)c1cccc(O[C@@H]3O[C@H](CO)[C@@H](O)[C@H](O)[C@H]3O)c1C2=O` [SENNOSIDE B], the EBV-EA activation % of TPA control in data set [1], in data set [2] and in data set [3] was 100% each time. Besides, the viability at 1000 molar ratio in data set [4] was determined as 70%. The viability at 500 molar ratio in data set [5] was above 80%. The viability at 100 molar ratio in data set [6] was above 80%. The viability at 10 molar ratio in data set [7] was above 80%.

For the compound `O=C1c2ccccc2C(=O)c2c1ccc(O)c2O` [ATHRAQUINONES A], the EBV-EA activation % of TPA control in data set [1] stood at 92.4%; in data set [2] it was 100%; in data set [3] it was 100%. Besides, the viability at 1000 molar ratio in data set [4] was determined as 60%. Further, in data set [5], the viability at 500 molar ratio was above 80%. For the same compound, the viability at 100 molar ratio in data set [6] was above 80%. Besides, in data set [7], the viability at 10 molar ratio is above 80%.

Regarding `Cc1cnc2c(c1)C(=O)c1cccc(O)c1C2=O`, the EBV-EA activation % of TPA control came out at 15.8% in data set [1], 72.4% in data set [2] and 100% in data set [3]. In addition, the viability at 1000 molar ratio in data set [4] amounted to 30%. Also, in data set [5], the viability at 500 molar ratio was above 80%. Further, in data set [6], the viability at 100 molar ratio is 60%. For the same compound, the viability at 10 molar ratio in data set [7] is above 80%.

Turning to `CC1C=CNC2=C1C(=O)c1cc(O)ccc1C2=O` (stereo not drawn), the results for the EBV-EA activation % of TPA control in data set [1], in data set [2] and in data set [3] were 62.1%, 66.7% and 100%, respectively. The viability at 1000 molar ratio in data set [4] amounted to 70%. The viability at 500 molar ratio in data set [5] is above 80%. Further, in data set [6], the viability at 100 molar ratio was above 80%. In addition, the viability at 10 molar ratio in data set [7] was above 80%.

For `O=C1c2ccccc2-c2ncccc21`, the EBV-EA activation % of TPA control in data set [1] is 97.6%; in data set [2], 100%; in data set [3], 100%. Also, the viability at 1000 molar ratio in data set [4] turned out to be 70%. For the same compound, in data set [5], the viability at 500 molar ratio is above 80%. Also, the viability at 100 molar ratio in data set [6] was above 80%. The viability at 10 molar ratio in data set [7] is above 80%.

In the case of `CN(C)C1=CC(=O)c2c(O)cccc2C1=O`, the EBV-EA activation % of TPA control in data set [1] worked out at 60.5%; in data set [2] it was 61.5%; in data set [3] it was 89.2%. Also, the viability at 1000 molar ratio in data set [4] is above 80%. In addition, the viability at 500 molar ratio in data set [5] was above 80%. The viability at 100 molar ratio in data set [6] was above 80%. Also, the viability at 10 molar ratio in data set [7] is above 80%.

As to `O=C1C=CC(=O)c2c(O)ccc(O)c21` [NAPHTHAZALIN], the EBV-EA activation % of TPA control is 0% in data set [1], 0% in data set [2] and 68.9% in data set [3]. Also, the viability at 1000 molar ratio in data set [4] worked out at 20%. For the same compound, the viability at 500 molar ratio in data set [5] came out at 40%. Besides, the viability at 100 molar ratio in data set [6] was 50%. Also, in data set [7], the viability at 10 molar ratio was above 80%.
